How the values were obtained:
Experiment in all cases: Test D controlled growth environment herbicide test, pre- and postemergence
Assay type in all cases: in vivo
[1] = tested on: buckwheat, wild (wild buckwheat, Polygonum convolvulus)
How it was run: (§1)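 Pre-emergence: seeds sown in silt loam soil were sprayed with compound in a non-phytotoxic solvent mix containing surfactant. Post-emergence: plants at 2 to 18 cm (1- to 4-leaf stage) in peat moss/vermiculite medium got the same formulation. Visual 0–100 rating versus controls after 14 to 21 d.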

[2] = tested on: field violet (Viola arvensis)
How it was run: as §1

[3] = tested on: mustard, wild (wild mustard, Sinapis arvensis)
How it was run: as §1

[4] = tested on: canarygrass (Phalaris minor)
How it was run: as §1

[5] = tested on: bromegrass, downy (downy bromegrass, Bromus tectorum)
How it was run: as §1

[6] = tested on: Russian thistle (Salsola kali)
How it was run: as §1

[7] = tested on: chamomile (scentless chamomile, Matricaria inodora)
How it was run: as §1

[8] = tested on: oilseed rape (Brassica napus)
How it was run: as §1

[9] = tested on: field poppy (Papaver rhoeas)
How it was run: as §1

[10] = tested on: wheat, spring (spring wheat, Triticum aestivum)
How it was run: as §1

[11] = tested on: bluegrass (annual bluegrass, Poa annua)
How it was run: as §1

[12] = tested on: radish, wild (wild radish, Raphanus raphanistrum)
How it was run: as §1

[13] = tested on: oat, wild (wild oat, Avena fatua)
How it was run: as §1

[14] = Postemergence, 31 g ai/ha, scale 0 to 100 (0 no effect, 100 complete control)
[15] = Postemergence, 125 g ai/ha, visual rating on scale 0 (no effect) to 100 (complete control), 14 to 21 d
[16] = Postemergence, 250 g ai/ha, scale 0 to 100 (0 no effect, 100 complete control)
[17] = Preemergence, 62 g ai/ha, scale 0 to 100 (0 no effect, 100 complete control)
[18] = Preemergence, 125 g ai/ha, scale 0 to 100 (0 no effect, 100 complete control)
[19] = Preemergence, 250 g ai/ha, scale 0 to 100 (0 no effect, 100 complete control)
[20] = postemergence, 62 g ai/ha, scale 0 to 100, 0 no effect, 100 complete control

Cc1cc(C)c2sc(C)c(-c3c(OC(=O)OCCCl)c(C)nn(C)c3=O)c2c1 [Compound 85]
40: Plant response rating, Mustard, Wild [3, 19] | Plant response rating, Wheat, Spring [10, 19] | Plant response rating, Bluegrass [11, 16] | Plant response rating (scale of 0 to 100), Bluegrass ([11]; Preemergence, 31 g ai/ha)
75: Plant response rating, Field Violet [2, 15] | Canarygrass plant response rating [4, 14] | Plant response rating, Russian Thistle [6, 19] | Plant response rating, Russian Thistle [6, 20] | Chamomile plant response rating [7, 14] | Plant response rating, Chamomile [7, 20] | Plant response rating, Bluegrass [11, 19] | Plant response rating, Radish, Wild [12, 15] | Oat, Wild plant response rating [13, 14] | Plant response rating (scale of 0 to 100), Oat, Wild ([13]; Preemergence, 31 g ai/ha) | Plant response rating (scale of 0 to 100), Oat, Wild ([13]; Preemergence, 62 g ai/ha)
25: Plant response rating (scale of 0 to 100), Mustard, Wild ([3]; Preemergence, 31 g ai/ha) | Plant response rating (scale of 0 to 100), Mustard, Wild ([3]; Preemergence, 62 g ai/ha) | Plant response rating, Mustard, Wild [3, 20] | Plant response rating, Russian Thistle [6, 18] | Plant response rating, Bluegrass [11, 15] | Plant response rating (scale of 0 to 100), Radish, Wild ([12]; Preemergence, 62 g ai/ha)
80: Plant response rating, Buckwheat, Wild [1, 18] | Plant response rating, Mustard, Wild [3, 16] | Plant response rating (scale of 0 to 100), Canarygrass ([4]; Preemergence, 31 g ai/ha) | Plant response rating, Bromegrass, Downy [5, 19] | Plant response rating, Russian Thistle [6, 15] | Plant response rating, Oilseed Rape [8, 16] | Plant response rating, Field Poppy [9, 15] | Plant response rating, Radish, Wild [12, 16]
70: Plant response rating (scale of 0 to 100), Field Violet ([2]; Preemergence, 62 g ai/ha) | Plant response rating, Oilseed Rape [8, 15] | Plant response rating, Oilseed Rape [8, 20] | Field Poppy plant response rating [9, 14]
100: Plant response rating, Buckwheat, Wild [1, 15] | Plant response rating, Buckwheat, Wild [1, 16] | Plant response rating, Buckwheat, Wild [1, 19] | Plant response rating, Buckwheat, Wild [1, 20] | Plant response rating, Field Violet [2, 19] | Plant response rating, Radish, Wild [12, 18] | Plant response rating, Radish, Wild [12, 19] | Plant response rating, Oat, Wild [13, 16]
55: Plant response rating, Bromegrass, Downy [5, 18]
35: Plant response rating, Mustard, Wild [3, 18] | Plant response rating, Bromegrass, Downy [5, 15] | Plant response rating, Bromegrass, Downy [5, 17]
30: Plant response rating, Mustard, Wild [3, 15] | Bromegrass, Downy plant response rating [5, 14] | Plant response rating, Bromegrass, Downy [5, 20] | Plant response rating, Oilseed Rape [8, 19]
65: Plant response rating, Buckwheat, Wild [1, 17] | Field Violet plant response rating [2, 14] | Plant response rating (scale of 0 to 100), Field Violet ([2]; Preemergence, 31 g ai/ha) | Plant response rating, Field Violet [2, 20] | Russian Thistle plant response rating [6, 14] | Oilseed Rape plant response rating [8, 14] | Plant response rating, Bluegrass [11, 18] | Plant response rating, Radish, Wild [12, 20]
85: Plant response rating, Canarygrass [4, 15] | Plant response rating, Canarygrass [4, 20] | Plant response rating, Chamomile [7, 16] | Plant response rating, Oat, Wild [13, 18] | Plant response rating, Oat, Wild [13, 20]
95: Buckwheat, Wild plant response rating [1, 14] | Plant response rating, Field Violet [2, 18] | Plant response rating, Canarygrass [4, 19] | Plant response rating, Field Poppy [9, 16] | Plant response rating, Field Poppy [9, 19] | Plant response rating, Oat, Wild [13, 15]
20: Plant response rating (scale of 0 to 100), Buckwheat, Wild ([1]; Preemergence, 31 g ai/ha) | Plant response rating, Oilseed Rape [8, 18] | Plant response rating, Wheat, Spring [10, 16] | Plant response rating, Bluegrass [11, 20]
10: Mustard, Wild plant response rating [3, 14] | Plant response rating (scale of 0 to 100), Russian Thistle ([6]; Preemergence, 62 g ai/ha) | Bluegrass plant response rating [11, 14]
90: Plant response rating, Field Violet [2, 16] | Plant response rating, Canarygrass [4, 16] | Plant response rating (scale of 0 to 100), Canarygrass ([4]; Preemergence, 62 g ai/ha) | Plant response rating, Canarygrass [4, 18] | Plant response rating, Russian Thistle [6, 16] | Plant response rating, Chamomile [7, 15] | Plant response rating, Field Poppy [9, 20] | Plant response rating, Oat, Wild [13, 19]
5: Plant response rating (scale of 0 to 100), Russian Thistle ([6]; Preemergence, 31 g ai/ha)
60: Plant response rating, Bromegrass, Downy [5, 16] | Plant response rating, Bluegrass [11, 17] | Radish, Wild plant response rating [12, 14]
0: Plant response rating (scale of 0 to 100), Oilseed Rape ([8]; Preemergence, 31 g ai/ha) | Plant response rating (scale of 0 to 100), Oilseed Rape ([8]; Preemergence, 62 g ai/ha) | Wheat, Spring plant response rating [10, 14] | Plant response rating (scale of 0 to 100), Wheat, Spring ([10]; Preemergence, 31 g ai/ha) | Plant response rating (scale of 0 to 100), Wheat, Spring ([10]; Preemergence, 62 g ai/ha) | Plant response rating, Wheat, Spring [10, 20] | Plant response rating (scale of 0 to 100), Radish, Wild ([12]; Preemergence, 31 g ai/ha)
15: Plant response rating (scale of 0 to 100), Bromegrass, Downy ([5]; Preemergence, 31 g ai/ha) | Plant response rating, Wheat, Spring [10, 15] | Plant response rating, Wheat, Spring [10, 18]

Source: US10597388B2, “Pyridazinone herbicides” (FMC CORPORATION, priority 2014, dated 2020)
